According to US20020052354A1, “Paramagnetic DOTA derivatives, pharmaceutical agents that contain the latter, process for their production, and their use for MR imaging of necrosis and infarction” (Schering AG, priority 2000, published 2002):

How the values were obtained:
infarction areas = details: Circulation, Vol. 90, No. 4, 1994; cited from earlier work
[1] = Determination of relaxivity R1 and R2 (Minispec PC 20); type: physicochemical; details: bovine plasma; 40° C.; 0.47 tesla; n = 3
Protocol: Determination of Relaxivity R1 [Lmmol^−1 s^−1] and R2 [Lmmol^−1 s^−1]
Measurement at 40° C.; 0.47 tesla
T1-sequence 180°-TI-90°, inversion recovery

[2] = in vivo; cited from earlier work

Relaxivity R1 [1] | Relaxivity R2 [1] | Substance | visualization of infarction areas (infarction areas) | deposition in the skin (photosensitization and discoloration) [2]
15.3 ± 0.3 Lmmol^−1 s^−1 | 16.3 ± 0.2 Lmmol^−1 s^−1 | Gd-mesoporphyrin [1c, DE 4232925] | readily visualize infarction areas | tend to be deposited in the skin
 |  | Mn-tetraphenyl-porphyrin [Mn-TTP] | readily visualize infarction areas | 
17.0 ± 0.1 Lmmol^−1 s^−1 | 20.2 ± 0.6 Lmmol^−1 s^−1 | N,N-Bis[1,4,7-tris(carboxylatomethyl)-1,4,7,10-tetraazacyclododecane-Gd-complex-10-(3-aza-4-oxo-hexan-5-ylic)-acid]-4,4′-methylene-N′,N′-bis[(3-methoxy)-2-naphtoic acid]-tetrahydrazide [Example 4] |  | 
22.8 ± 0.8 Lmmol^−1 s^−1 | 29.2 ± 1.1 Lmmol^−1 s^−1 | N-(1,4,7,-Tris(carboxylatomethyl)-1,4,7,10-tetraazacyclododecane-Gd-complex-10-[1-carboxylate-1-[3-oxapropionic acid)-phenyl]-methyl-N′-[3-(methoxy),2-naphthoic acid]-dihydrazide, sodium salt [Example 11] |  | 
